Assay results reported in patent US8293786B2 (Alltranz Inc., priority 2007, dated 2012).

Columns and labels:
human abdominal skin = assay: In vitro human skin permeation and skin disposition, flow-through diffusion cells (Examples 2, 2A, 2B); format: in vitro ADME; conditions: for 30 h skin conc: Table 17, 40% aqueous PEG 400 receiver fluid; for 30 h skin conc / 42 h cumulative amt / Flux / Lag time / 42 h skin conc / Flux enhancement: 90:8:2 PG:H2O:IPM donor solution; for detected in the skin as / permeated through the skin as / total skin concentrations compared to cannabidiol / flux compared to cannabidiol / lag time compared to cannabidiol: in donor solution; for 42 h cumulative amt / Flux / Lag time / 42 h skin conc / Flux enhancement: Table 16, 60/40 Hanks'/PEG 400 receiver fluid; for Flux enhancement: total cannabidiol versus cannabidiol
Procedure: Flow through diffusion cells were used for the permeation studies. HEPES-buffered Hanks' balanced salts containing 40% PEG 400 with gentamicin or 40% aqueous PEG 400 with gentamicin were used for the receiver compartment. Donor solution was comprised of 90:8:2 PG:H2O:IPM solution or gel formulation. […] Drug accumulation in the skin after a 24, 30 or 42 h diffusion experiment was determined as μmol/g wet tissue weight.
The skin samples used in the following experiments were obtained from abdominal reduction surgery and dermatomed to a thickness of approximately 200 μm. The skin samples used herein were frozen at −20° C. for less than six months.
One (1) L of receiver fluid was prepared by measuring 1 L of nanopure water into a graduated cylinder. 90% of the water was added to an Erlenmeyer flask. Hanks' salts (1 bottle) were added to the water along with 5.96 g of HEPES and 0.35 g of sodium bicarbonate. The pH of the solution was adjusted with 1 N sodium hydroxide solution to pH 7.4. The remaining water was added and the receiver fluid was filtered through a 0.2μ filter (Millipore, Billerica, Mass.). Fifty (50) mg of gentamicin was added to the filtered receiver fluid and 400 mL of the receiver fluid was removed and replaced with 400 mL of PEG 400.
The receiver fluid was prepared by measuring 600 mL of nanopure H2O into a graduated cylinder. The H2O was filtered through a 0.2μ filter (Millipore, Billerica, Mass.). Fifty (50) mg of gentamicin was added to the filtered H2O and 400 mL of PEG 400 was added.
The prodrugs were made up in a solution of 45:4:1 PG:H2O:IPM. For this solution, the appropriate amount of drug was weighed into a glass silanized culture tube and IPM was added, the 50 μL of PG to coat the drug, then an additional 247 μL PG was added and the donor solution was vortexed again. Finally 26 μL of water was added. The gel formulation resulted from the mixing of absolute ethanol, nanopure water, IPM, Carbopol® 980, 0.1 N sodium hydroxide solution and the respective drug.
The gel formulation was comprised of absolute ethanol, nanopure water, IPM, Carbopol® 980, 0.1 sodium hydroxide solution and respective drug. The anhydrous gel was comprised of absolute ethanol, PEG monoethyl ether 550, Klucel® hydroxypropylcellulose, and respective drug.
Dermatomed skin harvested from abdominoplasty, stored at −20° C., was used for the experiments. A PermeGear flow-through (In-Line, Hellertown, Pa.) diffusion cell system was used for the skin permeation studies.
Diffusion cells were kept at 32° C. with a circulating water bath. Human epidermal skin was arranged in the diffusion cell with stratum corneum (upper layer of skin) facing the donor compartment. The permeation area of the skin was 0.95 cm^2. The data was collected from a human skin donor with three diffusion cells per treatment.
The receiver solution was HEPES-buffered Hanks' balanced salts with gentamicin containing 40% PEG 400 at a pH of 7.4 or 40% aqueous PEG 400 and flow rate was adjusted to 0.8 mL/h. Each cell was charged with 0.10 mL of the respective drug formulation (donor solution) or 50 μL of gel formulation which was rubbed into the skin for 15 sec with a Teflon coated rod. The formulation was applied to ensure complete coverage. […]. Diffusion cells were covered with a stopper or cap for the duration of the study.
Samples were collected into scintillation vials in 3 h increments for either 24, 30, or 42 h. All the samples were stored at 4° C. until extracted. An aliquot (0.5 mL) of the diffusion sample was placed into a silanized HPLC vial and 0.5 mL of acetonitrile was added to the sample, capped and vortexed.
At the end of the experiment, the skin tissue was removed from the diffusion cell, rinsed with nanopure water, and blotted dry with a paper towel. The skin was tape stripped twice using book tape (Scotch™, 3M, St. Paul, Minn.) to remove drug formulation adhering to the tissue surface.

[1] = Plasma stability of cannabidiol prodrugs (bioconversion to parent drug); format: in vitro ADME; conditions: Table 20; for % mono-prodrug at time (h) / % Di-prodrug at time (h): di-prodrug in plasma; for % mono-prodrug at time (h): mono-prodrug formed; for % Prodrug at time (h): mono-prodrug in plasma
Procedure: An approximated 1 mg/mL stock solution of each prodrug was prepared in 100 μL of ethanol and 900 μL of acetonitrile. Ten (10) μL of stock was spiked into 1 mL of plasma and vortexed. The samples were kept sealed in an amber vial and samples were obtained to analyze for bioconversion to parent drug.

[2] = as applied compound (CBD or intact prodrug)
[3] = prodrug applied, as total cannabidiol equivalents
[4] = mono-prodrug (ALL00131) from applied di-prodrug

| Structure (SMILES) | 30 h skin conc (human abdominal skin; [2]) [µmol/g] | 30 h skin conc (human abdominal skin; [3]) [µmol/g] | detected in the skin as (human abdominal skin) | permeated through the skin as (human abdominal skin) | total skin concentrations compared to cannabidiol (human abdominal skin) | % mono-prodrug at time (h) ([1]; 1 h) [%] | % mono-prodrug at time (h) ([1]; 24 h) [%] | % Di-prodrug at time (h) ([1]; 0 h) [%] | % Di-prodrug at time (h) ([1]; 1 h) [%] | % Di-prodrug at time (h) ([1]; 24 h) [%] | 42 h cumulative amt (human abdominal skin; CBD from applied prodrug) [nmol] | Flux (human abdominal skin; CBD from applied prodrug) [nmol/cm^2/h] | Lag time (human abdominal skin; CBD from applied prodrug) [h] | 42 h cumulative amt (human abdominal skin; [2]) [nmol] | 42 h skin conc (human abdominal skin; [2]) [µmol/g] | Flux (human abdominal skin; [2]) [nmol/cm^2/h] | Lag time (human abdominal skin; [2]) [h] | 42 h cumulative amt (human abdominal skin; [3]) [nmol] | 42 h skin conc (human abdominal skin; [3]) [µmol/g] | Flux (human abdominal skin; [3]) [nmol/cm^2/h] | further results |
| --- | --- | --- | --- | --- | --- | --- | --- | --- | --- | --- | --- | --- | --- | --- | --- | --- | --- | --- | --- | --- | --- |
| C=C(C)[C@@H]1CCC(C)=C[C@H]1c1c(OC(=O)OC)cc(CCCCC)cc1OC(=O)OC [ALL00143, CBD Bis(Methyl Carbonate)] | 5.8 ± 3.0 | 6.0 ± 3.2 | prodrug and trace amounts of cannabidiol | did not permeate through the skin or was below detection in the receiver samples | not higher | 0 | 0 | 100 | 82 | 65 | – | – | – | – | – | – | – | – | – | – | 30 h skin conc (human abdominal skin; CBD from applied prodrug): 0.5 ± 0.0 µmol/g; % mono-prodrug at time (h) ([1]; 3 h): 0%; % Di-prodrug at time (h) ([1]; 3 h): 76% |
| C=C(C)[C@@H]1CCC(C)=C[C@H]1c1c(OC(=O)COCCOCCOCCOC)cc(CCCCC)cc1OC(=O)COCCOCCOCCOC [ALL00132, CBD di(3,6,9,12-tetraoxatridecanoate)] | – | – | prodrug and small amounts as mono-substituted prodrug, ALL00131 | intact prodrug, mono-substituted prodrug (ALL00131), and cannabidiol | not higher | 52 | 2 | 100 | 28 | 0 | 10.0 ± 0.4 | 0.4 ± 0.1 | 11.8 ± 4.2 | 26.4 ± 17.0 | 2.9 ± 1.3 | 1.4 ± 0.4 | 19.2 ± 4.9 | 59.5 ± 23.8 | 3.5 ± 1.7 | 2.6 ± 0.5 | 42 h cumulative amt (human abdominal skin; [4]): 23.0 ± 7.1 nmol; 42 h skin conc (human abdominal skin; [4]): 0.6 ± 0.1 µmol/g; Flux (human abdominal skin; [4]): 0.8 ± 0.2 nmol/cm^2/h; Lag time (human abdominal skin; [4]): 9.1 ± 3.3 h; Lag time (human abdominal skin; [3]): 14.9 ± 3.8 h; Flux enhancement (human abdominal skin): 0.40; flux compared to cannabidiol (human abdominal skin): did not increase the flux; lag time compared to cannabidiol (human abdominal skin): wasn't decreased; % mono-prodrug at time (h) ([1]; 2 h): 44%; % mono-prodrug at time (h) ([1]; 4 h): 24%; % mono-prodrug at time (h) ([1]; 6 h): 15%; % Di-prodrug at time (h) ([1]; 2 h): 15%; % Di-prodrug at time (h) ([1]; 4 h): 0%; % Di-prodrug at time (h) ([1]; 6 h): 0% |
| C=C(C)[C@@H]1CCC(C)=C[C@H]1c1c(O)cc(CCCCC)cc1OC(=O)COCCOCCOCCOC [ALL00131, CBD 3,6,9,12-tetraoxatridecanoate] | – | – | only as prodrug | intact prodrug and cannabidiol | not higher | – | – | – | – | – | 15.4 ± 2.0 | 0.6 ± 0.1 | 9.6 ± 3.0 | 54.9 ± 22.1 | 12.5 ± 5.5 | 2.3 ± 0.8 | 13.7 ± 1.9 | 70.3 ± 20.4 | 12.5 ± 5.5 | 2.8 ± 0.7 | Lag time (human abdominal skin; [3]): 12.9 ± 1.6 h; Flux enhancement (human abdominal skin): 0.43; flux compared to cannabidiol (human abdominal skin): did not increase the flux; lag time compared to cannabidiol (human abdominal skin): similar; % Prodrug at time (h) ([1]; 0 h): 100%; % Prodrug at time (h) ([1]; 1 h): 64%; % Prodrug at time (h) ([1]; 2 h): 42%; % Prodrug at time (h) ([1]; 4 h): 24%; % Prodrug at time (h) ([1]; 6 h): 14%; % Prodrug at time (h) ([1]; 24 h): 14% |
| C=C(C)[C@@H]1CCC(C)=C[C@H]1c1c(O)cc(CCCCC)cc1OC(=O)[C@@H](O)CO [ALL00137, CBD (S)-2,3-dihydroxypropanoate] | 0.9 ± 0.3 | 1.0 ± 0.5 | prodrug and trace amounts of cannabidiol | did not permeate through the skin or was below detection in the receiver samples | not higher | – | – | – | – | – | – | – | – | – | – | – | – | – | – | – | 30 h skin conc (human abdominal skin; CBD from applied prodrug): 0.3 ± 0.0 µmol/g; % Prodrug at time (h) ([1]; 0 h): 89%; % Prodrug at time (h) ([1]; 1 h): 73%; % Prodrug at time (h) ([1]; 3 h): 60%; % Prodrug at time (h) ([1]; 24 h): 4% |
| C=C(C)[C@@H]1CCC(C)=C[C@H]1c1c(OC(C)=O)cc(CCCCC)cc1OC(C)=O [ALL00142, CBD Diacetate] | 5.5 ± 0.3 | 5.5 ± 0.3 | only as intact prodrug | did not permeate through the skin or was below detection in the receiver samples | not higher | 0 | 0 | 100 | 98 | 10 | – | – | – | – | – | – | – | – | – | – | % mono-prodrug at time (h) ([1]; 3 h): 0%; % Di-prodrug at time (h) ([1]; 3 h): 90% |
| C=C(C)C1CCC(C)=CC1c1c(O)cc(CCCCC)cc1OC(=O)COCCOCCOC (stereo not shown) [ALL00140, CBD 2-[2-(2-methoxyethoxy)ethoxy]acetate] | – | – | mostly as prodrug in the skin with small amounts of cannabidiol | intact prodrug and cannabidiol | not higher | – | – | – | – | – | 24.1 ± 3.3 | 0.9 ± 0.1 | 9.0 ± 2.7 | 34.3 ± 15.5 | 12.7 ± 6.6 | 1.3 ± 0.5 | 12.6 ± 2.5 | 58.1 ± 15.5 | 13.2 ± 6.9 | 2.2 ± 0.5 | 42 h skin conc (human abdominal skin; CBD from applied prodrug): 0.5 ± 0.3 µmol/g; Lag time (human abdominal skin; [3]): 11.2 ± 2.2 h; Flux enhancement (human abdominal skin): 0.33; flux compared to cannabidiol (human abdominal skin): did not increase the flux; lag time compared to cannabidiol (human abdominal skin): slightly decreased; % Prodrug at time (h) ([1]; 0 h): 100%; % Prodrug at time (h) ([1]; 2 h): 0%; % Prodrug at time (h) ([1]; 20 h): 0%; % Prodrug at time (h) ([1]; 24 h): 0% |
